Laboratory results taken from US12042481B2, “Use of (1R,5S)-(+)-1-(naphthalen-2-yl)-3-azabicyclo[3.1.0]hexane in the treatment of conditions affected by monoamine neurotransmitters” (priority 2011, dated 2024).

Legend:
[1] = system: 6-OHDA-lesioned juvenile rats; test: Locomotor activity of juvenile rats with neonatal 6-OHDA lesions (model of ADHD); type: in vivo, rat
Procedure: The behavioral effects of (1R,5S)-(+)-1-(naphthalen-2-yl)-3-azabicyclo[3.1.0]hexane were evaluated in a model of ADHD, which can be simulated in juvenile rates with neonatal 6-hydroxydopamine (6-OHDA) lesions (Davids et al., 2003). In this animal model, the NE neurons are protected from the neurotoxic effects of 6-OHDA by pretreatment with the NE transporter inhibitor desipramine, so the NE system is largely intact and can respond to NE transporter inhibitors (Davids et al., 2002). Furthermore, the 6-OHDA lesions produce learning and memory deficits in learning models including the T maze, and active and passive avoidance tasks (Shaywitz et al., 1978; Wool et al., 1987; Takasuna and Iwasaki, 1996). Performance in these learning and memory models was improved by administration of stimulants (Shaywitz et al., 1978; Wool et al., 1987). Thus, this model incorporates both hyperactivity and learning deficits found in ADHD.
(§1) Methods of lesioning neonatal rats with 6-OHDA were carried out as detailed in Zhang et al. (2001). Briefly, on postnatal day 1 (PD 1), male Sprague-Dawley rat pups were randomly assigned to a nursing dam (10/dam). On PD 5, pups receive a subcutaneous injection of 25 mg/kg desipramine hydrochloride to protect noradrenergic neurons, followed in 45 min. by randomly assigned intracisternal injection of vehicle or 6-OHDA hydrobromide (100 μg free base) under hypothermic anesthesia. Pups were returned to nursing dams immediately after the intracranial injections. Locomotor activity was monitored individually for 90 min. in the periadolescent period on PD 25, using a microcomputer controlled infrared photobeam activity monitoring system. Locomotor activity was defined as breaking of consecutive photobeams and the activity accumulated in 5 minute bins. Behavioral testing was conducted in a novel environment (transparent plastic cages containing fresh bedding) within a grid of horizontal infrared beams. Each dose of (1R,5S)-(+)-1-(naphthalen-2-yl)-3-azabicyclo[3.1.0]hexane (1, 3 and 10 mg/kg) or methylphenidate (3 mg/kg) was dissolved in saline and given i.p. immediately prior to testing. The effects of sham versus 6-OHDA lesions on dopamine neurons in rats were quantified as decrements of DA transporters labeled with [31-1]2-(3-carbomethoxy-3-β-[4′-iodophenyl]tropane ([^3H]β-CIT), a selective DA transporter radioligand (Kula et al. 1999). Sections were preincubated (60 min., room temp [RT]) in 50 mM Tris-HCl buffer (pH 7.7) containing 120 mM NaCl and 4 mM MgCl2, then in fresh buffer (60 min) containing 2 nM [3H](3-CIT. Nonspecific binding was defined with 1 μM GBR-12909. Slides were then washed (2×5 min) in ice-cold buffer, dipped in ice-cold water, and air-dried. Radiolabeled slides and calibrated [^3H]standards were exposed to [^3H]sensitive films for 10-14 d at 4° C. Tritium-sensitive Hyperfilms were developed and fixed in Kodak D-19 for 5 min. at RT. Images were quantified with a computer-controlled MCID image analyzer. Brain regions of interest were outlined and their optical density was measured with two sections representing total binding, with two samples representing nonspecific binding. Optical density of sampled regions was measured and the amount of ligand bound within each area was calculated as nCi/mg tissue. Mean values of non-specific binding in each region were subtracted from the mean total binding to determine specific binding, which was converted into fmol/mg of radioligand bound.

dopamine transporters = test: Autoradiographic binding of [3H]β-CIT to dopamine transporters in juvenile rat brain after neonatal 6-OHDA lesioning; type: in vivo; conditions: for specific binding of [3H]β-CIT to dopamine transporters, 6-OHDA Lesioned: mean ± SEM
Procedure: as §1

Structure (SMILES)	cumulative locomotor score ([1]; 6-OHDA-lesioned rats, PD 25, 90 minute testing period)	fold difference of cumulative locomotor score versus sham-lesioned rats ([1]; PD 25, 90 minute testing period, p<0.001) [fold]	% Sham Lesion, binding of [3H]β-CIT (dopamine transporters; lateral caudate-putamen) [%]	specific binding of [3H]β-CIT to dopamine transporters, 6-OHDA Lesioned (dopamine transporters; lateral caudate-putamen) [fmol/mg tissue]	% Sham Lesion, binding of [3H]β-CIT (dopamine transporters; medial caudate-putamen) [%]	specific binding of [3H]β-CIT to dopamine transporters, 6-OHDA Lesioned (dopamine transporters; medial caudate-putamen) [fmol/mg tissue]	% Sham Lesion, binding of [3H]β-CIT (dopamine transporters; nucleus accumbens septi) [%]	specific binding of [3H]β-CIT to dopamine transporters, 6-OHDA Lesioned (dopamine transporters; nucleus accumbens septi) [fmol/mg tissue]	locomotor activity (FIGS. 7A and 7B) ([1]; 6-OHDA-lesioned juvenile rats at PD25, p<0.05 versus vehicle)	time over which locomotor activity was significantly attenuated ([1]; methylphenidate 3 mg/kg i.p., PD 25, 90 min test) [min]
NCCc1cc(O)c(O)cc1O [6-OHDA, 6-hydroxydopamine]	2758±3.0	9	25.7	30.9 ± 2.4	22.2	24.9 ± 3.5	32.2	22.8 ± 1.8		
COC(=O)C(c1ccccc1)C1CCCCN1 (stereo not shown) [methylphenidate, reference compound]									reduced locomotor activity	90
